In the supplement of paper PMC10627819:

What was measured:
B. subtilis 168 [1] = assay: fitness (endpoint OD595 vs no drug) (fraction); higher = more growth
Procedure, shortened: (§1)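 Plates with 384 wells were inoculated at OD595 0.01 using 30 µl of TSB, LB Lennox or CY, or 55 µl for S. pneumoniae. Incubation was at 37 °C, with OD595 measured every 30 min for 14 h. Fitness is the stationary-phase transition optical density over the robust mean of no-drug control wells, after first-reading background subtraction; it is capped at 1.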

S. pneumoniae D39V [2] = assay: as above
Procedure, shortened: as §1

B. subtilis 168 [3] = assay: Bliss interaction score (quartile over a dose matrix) (fitness difference); higher = more antagonism (negative = synergy)
Procedure, shortened: (§2)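 Fitness is OD595 at stationary-phase entry relative to the plate's robust no-drug mean, capped at 1. Single-drug fitness was inferred from combinations. The Bliss score is observed minus product-expected fitness, summarised by quartiles over technical, biological and donor/recipient replicates.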

S. aureus DSM 20231 = assay: as above
Procedure, shortened: as §2

S. aureus Newman = assay: as above
Procedure, shortened: as §2

S. pneumoniae D39V [4] = assay: as above
Procedure, shortened: as §2
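Wherever Bliss interaction score (quartile over a dose matrix) is given: first quartile when negative (synergy) and third quartile when positive (antagonism).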

In the case of `C[C@H]1COc2c(N3CCN(C)CC3)c(F)cc3c(=O)c(C(=O)O)cn1c23` [Levofloxacin] + CN(N=O)C(=O)N[C@@H](C=O)[C@@H](O)[C@H](O)[C@H](O)CO [Streptozotocin], the fitness (B. subtilis 168 [1]; first compound 0.001 µg/mL, partner 0.15 µg/mL, one replicate) is reported as 0.98, the fitness (B. subtilis 168 [1]; first compound 0.001 µg/mL, partner 0.3 µg/mL, one replicate) is reported as 0.96 and the fitness (B. subtilis 168 [1]; first compound 0.001 µg/mL, partner 0.6 µg/mL, one replicate) is reported as ≥ 1. The fitness (B. subtilis 168 [1]; first compound 0.002 µg/mL, partner 0.15 µg/mL, one replicate) was 0.923, the fitness (B. subtilis 168 [1]; first compound 0.002 µg/mL, partner 0.3 µg/mL, one replicate) was 0.948 and the fitness (B. subtilis 168 [1]; first compound 0.002 µg/mL, partner 0.6 µg/mL, one replicate) was ≥ 1. The fitness (B. subtilis 168 [1]; first compound 0.0039 µg/mL, partner 0.15 µg/mL, one replicate) was 0.934, the fitness (B. subtilis 168 [1]; first compound 0.0039 µg/mL, partner 0.3 µg/mL, one replicate) was 0.886 and the fitness (B. subtilis 168 [1]; first compound 0.0039 µg/mL, partner 0.6 µg/mL, one replicate) was 0.979. For the same molecule, the fitness (B. subtilis 168 [1]; first compound 0.0312 µg/mL, partner 0.15 µg/mL, one replicate) was 0.0317, the fitness (B. subtilis 168 [1]; first compound 0.0312 µg/mL, partner 0.3 µg/mL, one replicate) was 0.0288 and the fitness (B. subtilis 168 [1]; first compound 0.0312 µg/mL, partner 0.6 µg/mL, one replicate) was 0.025. It also gave a fitness (B. subtilis 168 [1]; first compound 0.0625 µg/mL, partner 0.15 µg/mL, one replicate) of 0.0292, a fitness (B. subtilis 168 [1]; first compound 0.0625 µg/mL, partner 0.3 µg/mL, one replicate) of 0.0412 and a fitness (B. subtilis 168 [1]; first compound 0.0625 µg/mL, partner 0.6 µg/mL, one replicate) of 0.0304. The fitness (B. subtilis 168 [1]; first compound 0.125 µg/mL, partner 0.15 µg/mL, one replicate) was 0.0367, the fitness (B. subtilis 168 [1]; first compound 0.125 µg/mL, partner 0.3 µg/mL, one replicate) was 0.0451 and the fitness (B. subtilis 168 [1]; first compound 0.125 µg/mL, partner 0.6 µg/mL, one replicate) was 0.0177. It also gave a fitness (S. pneumoniae D39V [2]; first compound 0.1725 µg/mL, partner 1.2 µg/mL) of 0.938, a fitness (S. pneumoniae D39V [2]; first compound 0.1725 µg/mL, partner 2.4 µg/mL) of 0.936 and a fitness (S. pneumoniae D39V [2]; first compound 0.1725 µg/mL, partner 4.8 µg/mL) of 0.952. It also gave a fitness (S. pneumoniae D39V [2]; first compound 0.2 µg/mL, partner 1.2 µg/mL, one replicate) of 0.925, a fitness (S. pneumoniae D39V [2]; first compound 0.2 µg/mL, partner 2.4 µg/mL, one replicate) of 0.909 and a fitness (S. pneumoniae D39V [2]; first compound 0.2 µg/mL, partner 4.8 µg/mL, one replicate) of 0.823. For the same molecule, the fitness (S. pneumoniae D39V [2]; first compound 0.345 µg/mL, partner 1.2 µg/mL) was 0.816, the fitness (S. pneumoniae D39V [2]; first compound 0.345 µg/mL, partner 2.4 µg/mL) was 0.845 and the fitness (S. pneumoniae D39V [2]; first compound 0.345 µg/mL, partner 4.8 µg/mL) was 0.841. The fitness (S. pneumoniae D39V [2]; first compound 0.4 µg/mL, partner 1.2 µg/mL, one replicate) was 0.759, the fitness (S. pneumoniae D39V [2]; first compound 0.4 µg/mL, partner 2.4 µg/mL, one replicate) was 0.802 and the fitness (S. pneumoniae D39V [2]; first compound 0.4 µg/mL, partner 4.8 µg/mL, one replicate) was 0.603. It also gave a fitness (S. pneumoniae D39V [2]; first compound 0.69 µg/mL, partner 1.2 µg/mL) of 0.362, a fitness (S. pneumoniae D39V [2]; first compound 0.69 µg/mL, partner 2.4 µg/mL) of 0.398 and a fitness (S. pneumoniae D39V [2]; first compound 0.69 µg/mL, partner 4.8 µg/mL) of 0.44. For the same molecule, the fitness (S. pneumoniae D39V [2]; first compound 0.8 µg/mL, partner 1.2 µg/mL, one replicate) was 0.259, the fitness (S. pneumoniae D39V [2]; first compound 0.8 µg/mL, partner 2.4 µg/mL, one replicate) was 0.302 and the fitness (S. pneumoniae D39V [2]; first compound 0.8 µg/mL, partner 4.8 µg/mL, one replicate) was 0.0669. It also gave a Bliss interaction score (B. subtilis 168 [3]) of 0.0603, a Bliss interaction score (S. aureus DSM 20231) of -0.0228 and a Bliss interaction score (S. aureus Newman) of -0.102. The Bliss interaction score (S. pneumoniae D39V [4]) was -0.0624.

Work on `CN(C)C(=O)C(CCN1CCC(O)(c2ccc(Cl)cc2)CC1)(c1ccccc1)c1ccccc1` [Loperamide] + CN[C@@H]1[C@H](O)[C@H](NC)[C@H]2O[C@@]3(O)C(=O)C[C@@H](C)O[C@H]3O[C@@H]2[C@H]1O [Spectinomycin] yielded a fitness (B. subtilis 168 [1]; first compound 25 µg/mL, partner 2 µg/mL) of 0.812, a fitness (B. subtilis 168 [1]; first compound 25 µg/mL, partner 4 µg/mL) of 0.78 and a fitness (B. subtilis 168 [1]; first compound 25 µg/mL, partner 8 µg/mL) of 0.566. The fitness (S. pneumoniae D39V [2]; first compound 17.14 µg/mL, partner 4 µg/mL) was 0.983, the fitness (S. pneumoniae D39V [2]; first compound 17.14 µg/mL, partner 8 µg/mL) was 0.974 and the fitness (S. pneumoniae D39V [2]; first compound 17.14 µg/mL, partner 16 µg/mL) was 0.93. For the same molecule, the fitness (S. pneumoniae D39V [2]; first compound 20 µg/mL, partner 4 µg/mL, one replicate) was ≥ 1, the fitness (S. pneumoniae D39V [2]; first compound 20 µg/mL, partner 8 µg/mL, one replicate) was ≥ 1 and the fitness (S. pneumoniae D39V [2]; first compound 34.28 µg/mL, partner 4 µg/mL) was 0.994. The fitness (S. pneumoniae D39V [2]; first compound 34.28 µg/mL, partner 8 µg/mL) was 0.909, the fitness (S. pneumoniae D39V [2]; first compound 34.28 µg/mL, partner 16 µg/mL) was 0.929 and the fitness (S. pneumoniae D39V [2]; first compound 40 µg/mL, partner 4 µg/mL, one replicate) was ≥ 1. For the same molecule, the fitness (S. pneumoniae D39V [2]; first compound 40 µg/mL, partner 8 µg/mL, one replicate) was ≥ 1, the fitness (S. pneumoniae D39V [2]; first compound 68.57 µg/mL, partner 4 µg/mL, one replicate) was ≥ 1 and the fitness (S. pneumoniae D39V [2]; first compound 68.57 µg/mL, partner 8 µg/mL, one replicate) was ≥ 1. For the same molecule, the fitness (S. pneumoniae D39V [2]; first compound 68.57 µg/mL, partner 16 µg/mL, one replicate) was 0.983, the fitness (S. pneumoniae D39V [2]; first compound 80 µg/mL, partner 4 µg/mL, one replicate) was 0.977 and the fitness (S. pneumoniae D39V [2]; first compound 80 µg/mL, partner 8 µg/mL, one replicate) was 0.966. The Bliss interaction score (B. subtilis 168 [3]) was 0.354, the Bliss interaction score (S. aureus DSM 20231) was 0.104 and the Bliss interaction score (S. aureus Newman) was -0.103. For the same molecule, the Bliss interaction score (S. pneumoniae D39V [4]) was 0.126.
